Measured values from US20100152434A1, “Protein Kinase-binding Nucleosides and Associated Methods” (priority 2007, published 2010).
Where two headings read alike, the source gives them in different places.

Columns and labels:
OVCAR-3 [1] = test: cells; details: Homo sapiens, OVCAR-3
UO-31 [2] = system: UO-31
SNB-19 = test: cells; details: Homo sapiens, SNB-19
A549/ATCC [3] = system: A549/ATCC
SF-539 = test: cells; details: Homo sapiens, SF-539
LOX IMVI = test: cells; details: Homo sapiens
MDA-MB-435 = MDA-MB-435 (Melanoma panel)
HCC-2998 = details: HCC-2993
HOP-62 = test: cells; details: Homo sapiens, HOP-62
NCI-H322M [4] = system: NCI-H322M
NCI-H322M [5] = test: cells; details: Homo sapiens
HOP-92 = test: cells; details: Homo sapiens, HOP-92
U251 = test: cells; details: Homo sapiens, U-251
MDA-MB-231/ATCC = test: cells; details: Homo sapiens, MDA-MB-231
OVCAR-3 [6] = system: OVCAR-3
UACC-257 = test: cells; details: Homo sapiens, UACC-257
A549/ATCC [7] = test: cells; details: Homo sapiens, A549
UO-31 [8] = test: cells; details: Homo sapiens, UO-31
[9] = Log10 Concentration −4.0, Molar
[10] = Log10 Concentration −5.0, Molar
[11] = Log10 Concentration −6.0, Molar
[12] = Log10 Concentration −7.0, Molar
[13] = Log10 Concentration −8.0, Molar

Structure (SMILES): CNC(=O)NC[C@H]1O[C@@H](n2cnc3c(NC(=O)Nc4ccccc4)ncnc32)C(O[Si](C)(C)C(C)(C)C)[C@H]1O[Si](C)(C)C(C)(C)C (stereo partly drawn) [Compound 25, 2′,3′-Bis-O-(tert-butyldimethylsilyl)-5-deoxy-5′-[(N-methylcarbamoyl)amino]-N^6-(N-phenylcarbamoyl)adenosine]
- GI50 (OVCAR-3 [1]): 2.6 µM
- IC50 (OVCAR-3 [1]): 98.2 µM
- TGI (UO-31 [2]): 9.56E−6 Molar
- Percent Growth (UO-31 [2]; [9]): −21%
- Percent Growth (UO-31 [2]; [10]): −2%
- Percent Growth (UO-31 [2]; [11]): 84%
- Percent Growth (UO-31 [2]; [12]): 97%
- Percent Growth (UO-31 [2]; [13]): 87%
- TGI (HT29): 3.73E−6 Molar
- Percent Growth (HT29; [9]): −100%
- Percent Growth (HT29; [10]): −80%
- Percent Growth (HT29; [11]): 107%
- Percent Growth (HT29; [12]): 104%
- Percent Growth (HT29; [13]): 102%
- GI50 (SNB-19): 4.57 µM
- IC50 (SNB-19): > 100 µM
- TGI (COLO 205): 3.35E−6 Molar
- Percent Growth (COLO 205; [9]): −94%
- Percent Growth (COLO 205; [10]): −95%
- Percent Growth (COLO 205; [11]): 105%
- Percent Growth (COLO 205; [12]): 111%
- Percent Growth (COLO 205; [13]): 109%
- TGI (HCT-116): 4.31E−6 Molar
- Percent Growth (HCT-116; [9]): −100%
- Percent Growth (HCT-116; [10]): −59%
- Percent Growth (HCT-116; [11]): 102%
- Percent Growth (HCT-116; [12]): 105%
- Percent Growth (HCT-116; [13]): 107%
- TGI (A549/ATCC [3]): 1.20E−5 Molar
- Percent Growth (A549/ATCC [3]; [9]): −30%
- Percent Growth (A549/ATCC [3]; [10]): 4%
- Percent Growth (A549/ATCC [3]; [11]): 90%
- Percent Growth (A549/ATCC [3]; [12]): 98%
- Percent Growth (A549/ATCC [3]; [13]): 99%
- GI50 (SF-539): 3.07 µM
- IC50 (SF-539): 94.3 µM
- GI50 (LOX IMVI): 1.82 µM
- IC50 (LOX IMVI): 62.1 µM
- TGI (MDA-MB-435): 2.91E−5 Molar
- Percent Growth (MDA-MB-435; Log10 Concentration −4.0 Molar): −10%
- Percent Growth (MDA-MB-435; Log10 Concentration −5.0 Molar): 9%
- Percent Growth (MDA-MB-435; Log10 Concentration −6.0 Molar): 97%
- Percent Growth (MDA-MB-435; Log10 Concentration −7.0 Molar): 102%
- Percent Growth (MDA-MB-435; Log10 Concentration −8.0 Molar): 102%
- TGI (NCI-H23): 9.07E−6 Molar
- Percent Growth (NCI-H23; [9]): −53%
- Percent Growth (NCI-H23; [10]): −5%
- Percent Growth (NCI-H23; [11]): 105%
- Percent Growth (NCI-H23; [12]): 106%
- Percent Growth (NCI-H23; [13]): 100%
- TGI (HCC-2998): 3.75E−6 Molar
- Percent Growth (HCC-2998; Log10 Concentration −4.0 Molar): −91%
- Percent Growth (HCC-2998; Log10 Concentration −5.0 Molar): −79%
- Percent Growth (HCC-2998; Log10 Concentration −6.0 Molar): 106%
- Percent Growth (HCC-2998; Log10 Concentration −7.0 Molar): 93%
- Percent Growth (HCC-2998; Log10 Concentration −8.0 Molar): 100%
- TGI (SF-295): 3.18E−5 Molar
- Percent Growth (SF-295; [9]): −7%
- Percent Growth (SF-295; [10]): 7%
- Percent Growth (SF-295; [11]): 111%
- Percent Growth (SF-295; [12]): 107%
- Percent Growth (SF-295; [13]): 103%
- GI50 (HOP-62): 49.8 µM
- IC50 (HOP-62): 49 µM
- TGI (NCI-H322M [4]): >1.00E−4 Molar
- Percent Growth (NCI-H322M [4]; Log10 Concentration −4.0 Molar): 21%
- Percent Growth (NCI-H322M [4]; Log10 Concentration −5.0 Molar): 39%
- Percent Growth (NCI-H322M [4]; Log10 Concentration −6.0 Molar): 105%
- Percent Growth (NCI-H322M [4]; Log10 Concentration −7.0 Molar): 106%
- Percent Growth (NCI-H322M [4]; Log10 Concentration −8.0 Molar): 102%
- GI50 (NCI-H322M [5]): 6.86 µM
- IC50 (NCI-H322M [5]): > 100 µM
- GI50 (HOP-92): 15.5 µM
- IC50 (HOP-92): 97.5 µM
- GI50 (U251): 2.96 µM
- IC50 (U251): > 100 µM
- GI50 (MDA-MB-231/ATCC): 2.81 µM
- IC50 (MDA-MB-231/ATCC): 28.3 µM
- TGI (NCI-H226): 3.63E−6 Molar
- Percent Growth (NCI-H226; [9]): −48%
- Percent Growth (NCI-H226; [10]): −7%
- Percent Growth (NCI-H226; [11]): 105%
- Percent Growth (NCI-H226; [12]): 106%
- Percent Growth (NCI-H226; [13]): 102%
- TGI (OVCAR-3 [6]): 5.54E−6 Molar
- Percent Growth (OVCAR-3 [6]; [9]): −50%
- Percent Growth (OVCAR-3 [6]; [10]): −39%
- Percent Growth (OVCAR-3 [6]; [11]): 113%
- Percent Growth (OVCAR-3 [6]; [12]): 113%
- Percent Growth (OVCAR-3 [6]; [13]): 111%
- TGI (SNB-75): 3.41E−5 Molar
- Percent Growth (SNB-75; [9]): −12%
- Percent Growth (SNB-75; [10]): 14%
- Percent Growth (SNB-75; [11]): 73%
- Percent Growth (SNB-75; [12]): 95%
- Percent Growth (SNB-75; [13]): 94%
- TGI (RPMI-8226): >1.00E−4 Molar
- Percent Growth (RPMI-8226; [9]): 4%
- Percent Growth (RPMI-8226; [10]): 5%
- Percent Growth (RPMI-8226; [11]): 98%
- Percent Growth (RPMI-8226; [12]): 98%
- Percent Growth (RPMI-8226; [13]): 102%
- GI50 (UACC-257): 3.78 µM
- IC50 (UACC-257): > 100 µM
- GI50 (A549/ATCC [7]): 2.9 µM
- IC50 (A549/ATCC [7]): > 100 µM
- GI50 (UO-31 [8]): 2.5 µM
- IC50 (UO-31 [8]): > 100 µM
